Measurements taken from PubChem BioAssay AID328 (DTP/NCI, 2004).
“And” between values parts separate entries of the source, which are not always exact repeats. Identical values can stand only once. Toxic doses and inconclusive results are not listed.

Tested on: BDF1 mice, P388 leukemia ip, median survival T/C
Assay: NCI In Vivo Anticancer Drug Screen. Data for tumor model P388 Leukemia (intraperitoneal) in B6D2F1 (BDF1) mice
Conditions: endpoint: median survival time, higher = longer survival
Procedure, shortened: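 Steps: implant the tumour, treat one group with compound and another with vehicle, record survival, then divide treated by control.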

[1] = dose: 25.0 mg/kg/injection, schedule: Q04DX003 (ip), vehicle: Klucel (hydroxypropylcellulose) (HPC)
[2] = dose: 50.0 mg/kg/injection, schedule: Q04DX003 (ip), vehicle: Klucel (hydroxypropylcellulose) (HPC)
[3] = dose: 100.0 mg/kg/injection, schedule: Q04DX003 (ip), vehicle: Klucel (hydroxypropylcellulose) (HPC)
[4] = dose: 6.25 mg/kg/injection, schedule: Q04DX003 (ip), vehicle: saline with Tween-80
[5] = dose: 12.5 mg/kg/injection, schedule: Q04DX003 (ip), vehicle: saline with Tween-80
[6] = dose: 100.0 mg/kg/injection, schedule: Q04DX003 (ip), vehicle: saline with Tween-80
[7] = dose: 200.0 mg/kg/injection, schedule: Q04DX003 (ip), vehicle: saline with Tween-80
[8] = dose: 400.0 mg/kg/injection, schedule: Q04DX003 (ip), vehicle: saline with Tween-80
[9] = dose: 50.0 mg/kg/injection, schedule: Q01DX009 (ip), vehicle: saline with Tween-80
[10] = dose: 100.0 mg/kg/injection, schedule: Q01DX009 (ip), vehicle: saline with Tween-80
[11] = dose: 200.0 mg/kg/injection, schedule: Q01DX009 (ip), vehicle: saline with Tween-80
[12] = dose: 50.0 mg/kg/injection, schedule: Q01DX005 (ip), vehicle: saline with Tween-80
[13] = dose: 12.5 mg/kg/injection, schedule: Q01DX009 (ip), vehicle: saline with Tween-80
[14] = dose: 25.0 mg/kg/injection, schedule: Q01DX009 (ip), vehicle: saline with Tween-80
[15] = dose: 400.0 mg/kg/injection, schedule: Q01DX009 (ip), vehicle: saline with Tween-80
[16] = dose: 6.25 mg/kg/injection, schedule: Q01DX009 (ip), vehicle: saline with Tween-80

SMILES: CC1=C(Br)C(=O)C(Br)=C(Br)C1=O
- T/C [1]: 104 % of control
- T/C (dose: 35.0 mg/kg/injection, schedule: Q01DX009 (ip), vehicle: Klucel (hydroxypropylcellulose) (HPC)): 109 % of control
- T/C (dose: 37.5 mg/kg/injection, schedule: Q01DX001 (ip), vehicle: Klucel (hydroxypropylcellulose) (HPC)): 95 % of control
- T/C [2]: 100 % of control
- T/C (dose: 55.0 mg/kg/injection, schedule: Q01DX009 (ip), vehicle: Klucel (hydroxypropylcellulose) (HPC)): 90 % of control
- T/C (dose: 75.0 mg/kg/injection, schedule: Q01DX001 (ip), vehicle: Klucel (hydroxypropylcellulose) (HPC)): 109 % of control
- T/C [3]: 90 % of control
- T/C (dose: 150.0 mg/kg/injection, schedule: Q01DX001 (ip), vehicle: Klucel (hydroxypropylcellulose) (HPC)): 100 % of control

SMILES: O=C1NC(=O)C2(CCCc3ccc(N(CCCl)CCCl)cc32)N1 (configuration not stated)
- T/C [4]: 150 % of control
- T/C [5]: 170 % of control
- T/C [6]: 227 % of control
- T/C (dose: 132.0 mg/kg/injection, schedule: Q04DX003 (ip), vehicle: saline with Tween-80): 195 % of control
- T/C [7]: 229 % of control and 240 % of control
- T/C (dose: 300.0 mg/kg/injection, schedule: Q04DX003 (ip), vehicle: saline with Tween-80): 191 % of control

SMILES: O=C(O)C(Br)C(Br)c1ccccc1 (configuration not stated)
- T/C [6]: 100 % of control
- T/C [7]: 100 % of control
- T/C [8]: 109 % of control

SMILES: C/C(=C\c1ccccc1)C(C)(C)C(=O)O
- T/C [9]: 102 % of control
- T/C [10]: 96 % of control
- T/C [11]: 99 % of control

SMILES: FC(F)(F)COP1SCCS1
- T/C (dose: 25.0 mg/kg/injection, schedule: Q01DX005 (ip), vehicle: saline with Tween-80): 97 % of control
- T/C [12]: 97 % of control

SMILES: O=C1c2ccccc2C(=O)N1CC/C=C/c1ccc([N+](=O)[O-])cc1Cl
- T/C [6]: 100 % of control
- T/C [7]: 100 % of control
- T/C [8]: 100 % of control

SMILES: CC(C)(C)C1CCC(C#N)(NNc2ccccc2)CC1 (configuration not stated)
- T/C [12]: 90 % of control
- T/C (dose: 100.0 mg/kg/injection, schedule: Q01DX005 (ip), vehicle: saline with Tween-80): 106 % of control
- T/C (dose: 200.0 mg/kg/injection, schedule: Q01DX005 (ip), vehicle: saline with Tween-80): 89 % of control

SMILES: c1c[nH]cn1
- T/C (dose: 100.0 mg/kg/injection, schedule: Q01DX009 (ip), vehicle: saline): 90 % of control
- T/C (dose: 100.0 mg/kg/injection, schedule: Q04DX003 (ip), vehicle: saline): 95 % of control
- T/C (dose: 200.0 mg/kg/injection, schedule: Q01DX009 (ip), vehicle: saline): 100 % of control
- T/C (dose: 200.0 mg/kg/injection, schedule: Q04DX003 (ip), vehicle: saline): 104 % of control
- T/C (dose: 400.0 mg/kg/injection, schedule: Q01DX009 (ip), vehicle: saline): 118 % of control
- T/C (dose: 400.0 mg/kg/injection, schedule: Q04DX003 (ip), vehicle: saline): 95 % of control

SMILES: O=C1OC(c2ccccc2)(c2ccccc2)c2ccccc21
- T/C (dose: 45.0 mg/kg/injection, schedule: Q01DX009 (ip), vehicle: Klucel (hydroxypropylcellulose) (HPC)): 100 % of control
- T/C (dose: 65.0 mg/kg/injection, schedule: Q01DX009 (ip), vehicle: Klucel (hydroxypropylcellulose) (HPC)): 90 % of control
- T/C (dose: 150.0 mg/kg/injection, schedule: Q01DX009 (ip), vehicle: Klucel (hydroxypropylcellulose) (HPC)): 90 % of control
- T/C (dose: 200.0 mg/kg/injection, schedule: Q01DX009 (ip), vehicle: Klucel (hydroxypropylcellulose) (HPC)): 90 % of control
- T/C (dose: 400.0 mg/kg/injection, schedule: Q01DX009 (ip), vehicle: Klucel (hydroxypropylcellulose) (HPC)): 86 % of control

SMILES: COc1ccccc1NC(=O)Nc1cccc(Cl)c1
- T/C [6]: 95 % of control
- T/C [7]: 104 % of control
- T/C [8]: 95 % of control

SMILES: C=CCOCCC(=O)OCC=C
- T/C (dose: 12.0 mg/kg/injection, schedule: Q01DX001 (ip), vehicle: Klucel (hydroxypropylcellulose) (HPC)): 104 % of control
- T/C (dose: 25.0 mg/kg/injection, schedule: Q01DX001 (ip), vehicle: Klucel (hydroxypropylcellulose) (HPC)): 100 % of control
- T/C [1]: 100 % of control
- T/C (dose: 50.0 mg/kg/injection, schedule: Q01DX001 (ip), vehicle: Klucel (hydroxypropylcellulose) (HPC)): 86 % of control
- T/C [2]: 104 % of control
- T/C [3]: 86 % of control and 100 % of control

SMILES: COc1ccc(CC(=O)N2CCc3cc(OC)c(OC)cc3C2O)cc1OC (configuration not stated)
- T/C [13]: 101 % of control
- T/C [14]: 89 % of control
- T/C [9]: 94 % of control
- T/C [10]: 114 % of control

SMILES: COC(=O)C(Br)C(Br)c1ccccc1 (configuration not stated)
- T/C [10]: 113 % of control
- T/C [15]: 118 % of control

SMILES: ON=C1CSSC1
- T/C (dose: 0.78 mg/kg/injection, schedule: Q01DX009 (ip), vehicle: saline with Tween-80): 100 % of control
- T/C (dose: 0.78 mg/kg/injection, schedule: Q04DX003 (ip), vehicle: saline with Tween-80): 106 % of control
- T/C (dose: 1.56 mg/kg/injection, schedule: Q01DX009 (ip), vehicle: saline with Tween-80): 102 % of control
- T/C (dose: 1.56 mg/kg/injection, schedule: Q04DX003 (ip), vehicle: saline with Tween-80): 100 % of control
- T/C (dose: 3.12 mg/kg/injection, schedule: Q01DX009 (ip), vehicle: saline with Tween-80): 109 % of control
- T/C (dose: 3.12 mg/kg/injection, schedule: Q04DX003 (ip), vehicle: saline with Tween-80): 99 % of control and 104 % of control
- T/C [16]: 90 % of control
- T/C [4]: 100 % of control and 104 % of control
- T/C [13]: 102 % of control
- T/C [5]: 99 % of control and 106 % of control

SMILES: ClC1=C(Cl)C(Cl)(C2(Cl)C(Cl)=C(Cl)C(Cl)=C2Cl)C(Cl)=C1Cl
- T/C (dose: 100.0 mg/kg/injection, schedule: Q01DX009 (ip), vehicle: gum acacia): 123 % of control
- T/C (dose: 100.0 mg/kg/injection, schedule: Q04DX003 (ip), vehicle: gum acacia): 108 % of control
- T/C (dose: 200.0 mg/kg/injection, schedule: Q04DX003 (ip), vehicle: gum acacia): 116 % of control
- T/C (dose: 400.0 mg/kg/injection, schedule: Q04DX003 (ip), vehicle: gum acacia): 104 % of control

SMILES: C[N+](C)(CC(=O)Nc1ccc(Cl)c(Cl)c1)CC(=O)c1ccc(Cl)cc1
- T/C (dose: 6.25 mg/kg/injection, schedule: Q04DX003 (ip), vehicle: saline): 110 % of control
- T/C (dose: 12.5 mg/kg/injection, schedule: Q04DX003 (ip), vehicle: saline): 95 % of control
- T/C (dose: 25.0 mg/kg/injection, schedule: Q04DX003 (ip), vehicle: saline): 100 % of control

SMILES: CC1(C)CC(=O)C=C(NC2CCCCC2)C1
- T/C (dose: 50.0 mg/kg/injection, schedule: Q04DX003 (ip), vehicle: saline sonified): 90 % of control
- T/C (dose: 100.0 mg/kg/injection, schedule: Q04DX003 (ip), vehicle: saline sonified): 109 % of control
- T/C (dose: 200.0 mg/kg/injection, schedule: Q04DX003 (ip), vehicle: saline sonified): 100 % of control

SMILES: COC(=O)/C(=C1/OC(=O)C(c2ccccc2)=C1O)c1ccccc1
- T/C [16]: 100 % of control
- T/C (dose: 11.0 mg/kg/injection, schedule: Q01DX009 (ip), vehicle: saline with Tween-80): 115 % of control
- T/C [13]: 90 % of control
- T/C (dose: 16.5 mg/kg/injection, schedule: Q01DX009 (ip), vehicle: saline with Tween-80): 105 % of control
- T/C [14]: 109 % of control and 112 % of control
- T/C (dose: 37.5 mg/kg/injection, schedule: Q01DX009 (ip), vehicle: saline with Tween-80): 95 % of control
- T/C [9]: 100 % of control

SMILES: CC[N+](C)(C)CC
- T/C (dose: 25.0 mg/kg/injection, schedule: Q01DX001 (ip), vehicle: saline): 105 % of control
- T/C (dose: 50.0 mg/kg/injection, schedule: Q01DX001 (ip), vehicle: saline): 103 % of control
- T/C (dose: 100.0 mg/kg/injection, schedule: Q01DX001 (ip), vehicle: saline): 96 % of control and 117 % of control

SMILES: O=S(=O)(Nc1ccc(O)c(Cl)c1)c1ccccc1
- T/C [10]: 86 % of control
- T/C [11]: 100 % of control
- T/C [15]: 104 % of control
